Legend:
PI3K gamma = target: T1, PI3K gamma (Homo sapiens, UniProt P48736); assay: PI3K gamma kinase assay (Kinase-Glo luminescence); type: biochemical
T1 construct: His tag (C); made in house; host or cells: baculovirus (pVL1393); Tn5 or TiniPro insect cells; construct from Roger Williams lab, MRC LMB
How it was run: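 Luminescent ATP-depletion (Kinase-Glo) assay with 150 nM PI3Kγ, 1 μM ATP and 10 μg/mL phosphatidylinositol in 10 mM Tris-HCl pH 7.5, 3 mM MgCl2, 50 mM NaCl, 0.05% CHAPS, 1 mM DTT; 120 min at room temperature. Eight-point dilutions; IC50 by four-parameter logistic fit.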

[1] = test system: PKB Ser473 phosphorylation in Rat1-myr-HA-p110 alpha cells; assay: Reverse protein array assay, PKB Ser473 phosphorylation in Rat1-myr-p110 alpha cells; type: cell-based; conditions: 0.5 h, pAkt Ser473, 30 minutes compound incubation, read-out: p-PKB IC50
How it was run: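 Cells: Rat1-myr-HA-p110 alpha/beta/delta, seeded ≥20 h. Lysis on ice 10 min; reverse-phase protein array, 4 lysate dilutions; fluorescence read, relative intensity.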

PI3K beta = target: T2, PI3K beta (Homo sapiens, UniProt P42338); assay: PI3K beta kinase assay (Kinase-Glo luminescence); type: biochemical
T2 construct: for the full-length p110-b subunit are generated and fused by overlapping PCR; p85(iSH2) fusion partner (see partner chain) (N); His tag (C); made in house; host or cells: baculovirus; Tn5 (Trichoplusia ni) or TiniPro insect cells
How it was run: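 Full-length p110β with a Gly-linked p85 iSH2 and a C-terminal His tag (BV949, 25 nM) was incubated with 10 μg/mL phosphatidylinositol and 1 μM ATP in 10 mM Tris pH 7.5, 3 mM MgCl2, 50 mM NaCl, 0.05% CHAPS, 1 mM DTT for 60 min at room temperature. Residual ATP was read by Kinase-Glo luminescence.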

PI3K alpha = target: T3, PI3K alpha (Homo sapiens, UniProt P42336); assay: PI3K alpha kinase assay (Kinase-Glo luminescence); type: biochemical
T3 construct: p85(iSH2) fusion partner (see partner chain) (N); His tag (C); made in house; host or cells: baculovirus; Tn5 (Trichoplusia ni) or TiniPro insect cells
How it was run: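 PI3Kα construct EMV B1075 (10 nM final) was preincubated with 10 μg/mL phosphatidylinositol in 10 mM Tris-HCl pH 7.5, 3 mM MgCl2, 50 mM NaCl, 0.05% CHAPS, 1 mM DTT. Reaction started with 1 μM ATP, 60 min at room temperature; remaining ATP measured by Kinase-Glo luminescence. IC50 from 4-parameter logistic fit of 8-point titrations.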

T3 sequence (P42336 with tags, fused parts or gaps limits assumed): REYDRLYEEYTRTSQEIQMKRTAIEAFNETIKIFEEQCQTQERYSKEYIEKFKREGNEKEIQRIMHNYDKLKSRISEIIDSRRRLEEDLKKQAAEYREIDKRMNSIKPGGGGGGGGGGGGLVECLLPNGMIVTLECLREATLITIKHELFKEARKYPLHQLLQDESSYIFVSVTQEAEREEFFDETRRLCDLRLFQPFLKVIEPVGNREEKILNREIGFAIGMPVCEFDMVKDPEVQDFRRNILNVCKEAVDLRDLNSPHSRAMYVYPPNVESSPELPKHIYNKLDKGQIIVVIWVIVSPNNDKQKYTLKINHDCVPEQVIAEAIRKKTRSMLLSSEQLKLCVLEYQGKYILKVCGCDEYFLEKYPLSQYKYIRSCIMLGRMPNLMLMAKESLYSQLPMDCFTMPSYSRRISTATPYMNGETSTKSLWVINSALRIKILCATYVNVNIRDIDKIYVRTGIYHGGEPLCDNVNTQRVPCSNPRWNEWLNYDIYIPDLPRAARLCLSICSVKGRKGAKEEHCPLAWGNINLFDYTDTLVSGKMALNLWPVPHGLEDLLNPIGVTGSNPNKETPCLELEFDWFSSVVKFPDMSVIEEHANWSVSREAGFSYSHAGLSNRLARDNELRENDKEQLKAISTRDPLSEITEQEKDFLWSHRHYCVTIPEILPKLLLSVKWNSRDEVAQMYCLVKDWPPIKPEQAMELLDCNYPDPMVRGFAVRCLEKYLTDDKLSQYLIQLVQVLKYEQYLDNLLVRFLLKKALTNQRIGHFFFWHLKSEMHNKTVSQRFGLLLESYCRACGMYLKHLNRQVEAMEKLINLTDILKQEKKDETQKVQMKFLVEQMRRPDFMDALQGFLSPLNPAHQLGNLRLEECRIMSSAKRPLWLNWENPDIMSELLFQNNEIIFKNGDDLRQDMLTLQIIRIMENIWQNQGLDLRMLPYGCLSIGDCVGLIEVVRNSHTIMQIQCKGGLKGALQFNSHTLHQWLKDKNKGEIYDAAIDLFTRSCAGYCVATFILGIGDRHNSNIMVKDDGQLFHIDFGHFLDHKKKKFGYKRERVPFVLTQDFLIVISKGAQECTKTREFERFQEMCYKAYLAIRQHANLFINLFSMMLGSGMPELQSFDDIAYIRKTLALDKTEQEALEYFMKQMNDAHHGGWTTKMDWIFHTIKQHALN
T2 sequence (P42338 with tags, fused parts or gaps limits assumed): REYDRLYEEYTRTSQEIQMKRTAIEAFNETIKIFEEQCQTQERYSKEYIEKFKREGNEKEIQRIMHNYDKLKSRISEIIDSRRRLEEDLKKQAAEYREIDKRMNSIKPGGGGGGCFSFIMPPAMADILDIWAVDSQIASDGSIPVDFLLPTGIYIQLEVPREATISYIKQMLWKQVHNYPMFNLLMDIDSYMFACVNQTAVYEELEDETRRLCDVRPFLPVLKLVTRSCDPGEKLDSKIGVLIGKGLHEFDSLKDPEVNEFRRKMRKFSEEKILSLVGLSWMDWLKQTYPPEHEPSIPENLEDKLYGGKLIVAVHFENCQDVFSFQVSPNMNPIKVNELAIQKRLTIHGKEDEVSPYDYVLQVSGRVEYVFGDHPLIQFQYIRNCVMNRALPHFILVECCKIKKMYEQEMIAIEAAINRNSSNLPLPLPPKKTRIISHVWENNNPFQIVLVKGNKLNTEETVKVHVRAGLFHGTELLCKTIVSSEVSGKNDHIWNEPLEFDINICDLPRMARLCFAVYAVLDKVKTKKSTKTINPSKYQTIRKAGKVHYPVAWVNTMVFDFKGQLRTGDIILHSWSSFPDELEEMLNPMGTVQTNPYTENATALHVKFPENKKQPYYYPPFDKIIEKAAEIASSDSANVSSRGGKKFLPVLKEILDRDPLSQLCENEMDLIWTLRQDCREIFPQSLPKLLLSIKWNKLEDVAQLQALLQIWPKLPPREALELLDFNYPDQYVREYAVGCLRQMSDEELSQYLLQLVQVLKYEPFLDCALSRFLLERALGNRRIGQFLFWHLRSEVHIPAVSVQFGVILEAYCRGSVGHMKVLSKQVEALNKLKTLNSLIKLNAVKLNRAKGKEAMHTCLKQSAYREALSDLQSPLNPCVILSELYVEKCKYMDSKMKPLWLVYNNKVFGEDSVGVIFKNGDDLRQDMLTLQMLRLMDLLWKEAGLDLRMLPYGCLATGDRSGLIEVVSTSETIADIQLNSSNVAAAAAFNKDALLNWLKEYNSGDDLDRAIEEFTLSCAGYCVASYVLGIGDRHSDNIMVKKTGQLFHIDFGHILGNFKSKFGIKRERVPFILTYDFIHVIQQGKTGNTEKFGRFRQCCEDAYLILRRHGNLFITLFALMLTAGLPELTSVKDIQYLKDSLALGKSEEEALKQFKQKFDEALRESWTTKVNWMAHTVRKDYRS
T1 sequence (P48736 144-1102 limits assumed): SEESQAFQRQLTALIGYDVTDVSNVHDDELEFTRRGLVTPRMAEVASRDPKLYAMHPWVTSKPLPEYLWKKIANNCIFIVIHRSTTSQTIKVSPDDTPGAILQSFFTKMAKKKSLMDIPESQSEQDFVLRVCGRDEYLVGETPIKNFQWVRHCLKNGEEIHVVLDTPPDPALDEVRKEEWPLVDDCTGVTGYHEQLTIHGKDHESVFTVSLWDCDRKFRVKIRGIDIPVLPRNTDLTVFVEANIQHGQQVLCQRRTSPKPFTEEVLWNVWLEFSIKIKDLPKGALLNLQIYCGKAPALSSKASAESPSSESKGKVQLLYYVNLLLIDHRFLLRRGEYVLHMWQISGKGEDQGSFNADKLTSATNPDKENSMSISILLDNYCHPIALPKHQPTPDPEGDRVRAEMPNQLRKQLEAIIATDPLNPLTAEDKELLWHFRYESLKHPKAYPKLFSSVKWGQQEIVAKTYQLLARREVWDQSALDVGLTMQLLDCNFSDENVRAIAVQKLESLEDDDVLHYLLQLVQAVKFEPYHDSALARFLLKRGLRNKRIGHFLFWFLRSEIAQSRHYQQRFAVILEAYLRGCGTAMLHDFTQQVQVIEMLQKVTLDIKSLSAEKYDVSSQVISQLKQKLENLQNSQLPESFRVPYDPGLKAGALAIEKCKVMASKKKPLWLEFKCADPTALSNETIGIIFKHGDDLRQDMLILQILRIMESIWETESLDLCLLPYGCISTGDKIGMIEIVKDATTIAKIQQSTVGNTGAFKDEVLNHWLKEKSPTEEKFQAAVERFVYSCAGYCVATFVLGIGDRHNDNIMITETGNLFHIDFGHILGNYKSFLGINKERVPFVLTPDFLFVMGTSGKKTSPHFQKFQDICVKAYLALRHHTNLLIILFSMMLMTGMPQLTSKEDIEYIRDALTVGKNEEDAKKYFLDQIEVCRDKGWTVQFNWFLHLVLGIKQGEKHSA

| SMILES | IC50 (PI3K gamma) | IC50 [1] | IC50 (PI3K beta) | IC50 (PI3K alpha) |
| --- | --- | --- | --- | --- |
| CCOc1ccc(-c2ccc3ncc4c(c3c2)n(-c2cnn(C)c2C)c(=O)n4C)cn1 [Example 3.6, 1-(1,5-Dimethyl-1H-pyrazol-4-yl)-8-(6-ethoxy-pyridin-3-yl)-3-methyl-1,3-dihydro-imidazo[4,5-c]quinolin-2-one] | 182 nM | 45 nM | 477 nM | 50 nM |
| CCOc1ccc(-c2ccc3ncc4c(c3c2)n(-c2cn(CC)nc2C)c(=O)n4C)cc1OCC [Example 27.1, 8-(3,4-Diethoxy-phenyl)-1-(1-ethyl-3-methyl-1H-pyrazol-4-yl)-3-methyl-1,3-dihydro-imidazo[4,5-c]quinolin-2-one] | 215 nM | 17 nM | 122 nM | 8 nM |
| CCOc1cc(-c2ccc3ncc4c(c3c2)n(-c2c(C)nn(C)c2C)c(=O)n4C)ccc1OC [Example 28.2, 8-(3-Ethoxy-4-methoxy-phenyl)-3-methyl-1-(1,3,5-trimethyl-1H-pyrazol-4-yl)-1,3-dihydro-imidazo[4,5-c]quinolin-2-one] | 174 nM | 76 nM | 132 nM | 62 nM |
| CCOc1ccc(-c2ccc3ncc4c(c3c2)n(-c2cn(C)nc2C)c(=O)n4C)cc1OC [Example 29.3, 1-(1,3-Dimethyl-1H-pyrazol-4-yl)-8-(4-ethoxy-3-methoxy-phenyl)-3-methyl-1,3-dihydro-imidazo[4,5-c]quinolin-2-one] | 169 nM | 8 nM | 144 nM | 11 nM |
| CCn1cc(-n2c(=O)n(C)c3cnc4ccc(-c5ccc(OCCOC)c(OC)c5)cc4c32)c(C)n1 [Example 30.2, 1-(1-Ethyl-3-methyl-1H-pyrazol-4-yl)-8-[3-methoxy-4-(2-methoxy-ethoxy)-phenyl]-3-methyl-1,3-dihydro-imidazo[4,5-c]quinolin-2-one] | 150 nM | 44 nM | 239 nM | 30 nM |
| Cc1nn(C)cc1-n1c(=O)n(C)c2cnc3ccc(-c4ccccc4)cc3c21 [Example 37.1, 1-(1,3-Dimethyl-1H-pyrazol-4-yl)-3-methyl-8-phenyl-1,3-dihydro-imidazo[4,5-c]quinolin-2-one] | 144 nM | 98 nM | 970 nM | 34 nM |
| Cc1nn(C)cc1-n1c(=O)n(C)c2cnc3ccc(-c4ccc(C(N)=O)cc4)cc3c21 [Example 41, 4-[1-(1,3-Dimethyl-1H-pyrazol-4-yl)-3-methyl-2-oxo-2,3-dihydro-1H-imidazo[4,5-c]quinolin-8-yl]-benzamide] | 165 nM | 48 nM | 112 nM | < 9 nM |
| CCOc1cncc(-c2ccc3ncc4c(c3c2)n(-c2cn(C)nc2Cl)c(=O)n4C)c1 [Example 56.4, 1-(3-Chloro-1-methyl-1H-pyrazol-4-yl)-8-(5-ethoxy-pyridin-3-yl)-3-methyl-1,3-dihydro-imidazo[4,5-c]quinolin-2-one] | 121 nM | 9 nM | 6 nM | 5 nM |

More lines, in order of falling IC50 (PI3K gamma), values ahead:

| IC50 (PI3K gamma) | IC50 [1] | IC50 (PI3K beta) | IC50 (PI3K alpha) | SMILES |
| --- | --- | --- | --- | --- |
| 397 nM | 139 nM | 252 nM | 86 nM | COCCOc1ccc(-c2ccc3ncc4c(c3c2)n(-c2cn(C)nc2C)c(=O)n4C)cn1 [Example 18, 1-(1,3-Dimethyl-1H-pyrazol-4-yl)-8-[6-(2-methoxy-ethoxy)-pyridin-3-yl]-3-methyl-1,3-dihydro-imidazo[4,5-c]quinolin-2-one] |
| 388 nM | 214 nM | 563 nM | 50 nM | Cc1nn(C)cc1-n1c(=O)n(C)c2cnc3ccc(-c4cccc(C(N)=O)c4)cc3c21 [Example 46, 3-[1-(1,3-Dimethyl-1H-pyrazol-4-yl)-3-methyl-2-oxo-2,3-dihydro-1H-imidazo[4,5-c]quinolin-8-yl]-benzamide] |
| 356 nM | 96 nM | 56 nM | 36 nM | COc1ncc(-c2ccc3ncc4c(c3c2)n(-c2cn(C)nc2C)c(=O)n4C)cc1[N+](=O)[O-] [Example 66, 1-(1,3-dimethyl-1H-pyrazol-4-yl)-8-(6-methoxy-5-nitro-pyridin-3-yl)-3-methyl-1,3-dihydro-imidazo[4,5-c]quinolin-2-one] |
| 325 nM | 28 nM | 526 nM | 123 nM | CNC(=O)c1ccc(-c2ccc3ncc4c(c3c2)n(-c2cn(C(C)C)nc2C)c(=O)n4C)cn1 [Example 15.3, 5-[1-(1-Isopropyl-3-methyl-1H-pyrazol-4-yl)-3-methyl-2-oxo-2,3-dihydro-1H-imidazo[4,5-c]quinolin-8-yl]-pyridine-2-carboxylic acid methylamide] |
| 278 nM | 51 nM | 506 nM | 47 nM | Cc1nn(C)cc1-n1c(=O)n(C)c2cnc3ccc(-c4ccc5c(c4)CC(=O)N5)cc3c21 [Example 49, 1-(1,3-Dimethyl-1H-pyrazol-4-yl)-3-methyl-8-(2-oxo-2,3-dihydro-1H-indol-5-yl)-1,3-dihydro-imidazo[4,5-c]quinolin-2-one] |
| 194 nM | 9 nM | 31 nM | 13 nM | CCOc1cc(-c2ccc3ncc4c(c3c2)n(-c2cn(C)nc2C)c(=O)n4C)ccc1OC [Example 28.3, 1-(1,3-Dimethyl-1H-pyrazo1-4-yl)-8-(3-ethoxy-4-methoxy-phenyl)-3-methyl-1,3-dihydro-imidazo[4,5-c]quinolin-2-one] |
| 190 nM | 15 nM | 51 nM | 16 nM | Cc1nn(C)cc1-n1c(=O)n(C)c2cnc3ccc(-c4cccc(S(=O)(=O)N(C)C)c4)cc3c21 [Example 53.1, 3-[1-(1,3-Dimethyl-1H-pyrazol-4-yl)-3-methyl-2-oxo-2,3-dihydro-1H-imidazo[4,5-c]quinolin-8-yl]-N,N-dimethyl-benzenesulfonamide] |
| 157 nM | 95 nM | 28 nM | 17 nM | COCc1cncc(-c2ccc3ncc4c(c3c2)n(-c2cn(C)nc2C)c(=O)n4C)c1 [Example 54.1, 1-(1,3-Dimethyl-1H-pyrazol-4-yl)-8-(5-methoxymethyl-pyridin-3-yl)-3-methyl-1,3-dihydro-imidazo[4,5-c]quinolin-2-one] |
| 140 nM | 85 nM | 43 nM | 7 nM | Cc1nn(C)cc1-n1c(=O)n(C)c2cnc3ccc(-c4cccc(O)c4)cc3c21 [Example 32.1, 1-(1,3-Dimethyl-1H-pyrazol-4-yl)-8-(3-hydroxy-phenyl)-3-methyl-1,3-dihydro-imidazo[4,5-c]quinolin-2-one] |
| 113 nM | 8 nM | 37 nM | 5 nM | Cc1nn(C)cc1-n1c(=O)n(C)c2cnc3ccc(-c4cccc5c4OC(F)(F)O5)cc3c21 [Example 35, 8-(2,2-Difluoro-benzo[1,3]dioxol-4-yl)-1-(1,3-dimethyl-1H-pyrazol-4-yl)-3-methyl-1,3-dihydro-imidazo[4,5-c]quinolin-2-one] |
| 83 nM | 77 nM | 34 nM | 20 nM | Cc1nn(C)cc1-n1c(=O)n(C)c2cnc3ccc(-c4cccc(S(C)(=O)=O)c4)cc3c21 [Example 40, 1-(1,3-Dimethyl-1H-pyrazol-4-yl)-8-(3-methanesulfonyl-phenyl)-3-methyl-1,3-dihydro-imidazo[4,5-c]quinolin-2-one] |

Source: patent publication US20140005163A1 (NOVARTIS AG, priority 2010, published 2014)
